Data published in paper PMC5218480 (PLoS ONE, 2017).

System: MV-4-11 cells
Test: Gene expression microarray analysis (Affymetrix PrimeView) and GSEA
Type: cell-based, human
Design: RFU PODN (11730768_x_at) / Fold change /veh PODN (11730768_x_at) / RFU LINC00158 (11744669_a_at) / Fold change /veh LINC00158 (11744669_a_at) / RFU DUSP10 (11751237_a_at) / Fold change /veh DUSP10 (11751237_a_at) / RFU ID3 (11757404_x_at) / Fold change /veh ID3 (11757404_x_at) / RFU PLEKHG5 (11737974_s_at) / Fold change /veh PLEKHG5 (11737974_s_at) / RFU LRRC4B (11730491_at) / Fold change /veh LRRC4B (11730491_at) / RFU GIMAP4 (11747438_a_at) / Fold change /veh GIMAP4 (11747438_a_at) / RFU KRT8 (11758183_x_at) / Fold change /veh KRT8 (11758183_x_at) / RFU CNN1 (11734310_a_at) / Fold change /veh CNN1 (11734310_a_at) / RFU VPS37D (11726825_at) / Fold change /veh VPS37D (11726825_at) / RFU C10orf10 (11716522_x_at) / Fold change /veh C10orf10 (11716522_x_at) / RFU KIR2DL2 /// KIR2DL4 /// KIR2DL5A /// KIR2DL5B /// KIR2DS1 /// KIR2DS2 /// KIR2DS3 /// KIR2DS4 /// KIR3DL3 /// KIR3DL3 /// KIR3DS1 (11738374_at) / Fold change /veh KIR2DL2 /// KIR2DL4 /// KIR2DL5A /// KIR2DL5B /// KIR2DS1 /// KIR2DS2 /// KIR2DS3 /// KIR2DS4 /// KIR3DL3 /// KIR3DL3 /// KIR3DS1 (11738374_at) / RFU C1QL1 (11718748_at) / Fold change /veh C1QL1 (11718748_at) / RFU TMPRSS4 (11747572_a_at) / Fold change /veh TMPRSS4 (11747572_a_at) / RFU HAMP (11756126_x_at) / Fold change /veh HAMP (11756126_x_at) / RFU RNFT2 (11725882_a_at) / Fold change /veh RNFT2 (11725882_a_at) / RFU NR4A2 (11747474_a_at) / Fold change /veh NR4A2 (11747474_a_at) / RFU ABCC12 (11746883_a_at) / Fold change /veh ABCC12 (11746883_a_at) / RFU TMEM136 (11760407_x_at) / Fold change /veh TMEM136 (11760407_x_at) / RFU CLDN22 /// WWC2 (11732394_at) / Fold change /veh CLDN22 /// WWC2 (11732394_at) / RFU HLA-DPB1 (11760878_x_at) / Fold change /veh HLA-DPB1 (11760878_x_at) / RFU SPINT1 (11716480_a_at) / Fold change /veh SPINT1 (11716480_a_at) / RFU GAP43 (11754022_s_at) / Fold change /veh GAP43 (11754022_s_at) / RFU A4GNT (11735810_at) / Fold change /veh A4GNT (11735810_at) / RFU PRB3 (11715151_x_at) / Fold change /veh PRB3 (11715151_x_at) / RFU TUBB4B (11761932_at) / Fold change /veh TUBB4B (11761932_at) / RFU CAPN14 (11732068_a_at) / Fold change /veh CAPN14 (11732068_a_at) / RFU TMCC2 (11721928_a_at) / Fold change /veh TMCC2 (11721928_a_at) / RFU IRGQ (11745062_a_at) / Fold change /veh IRGQ (11745062_a_at) / RFU FAM174B (11720279_a_at) / Fold change /veh FAM174B (11720279_a_at) / RFU TMPRSS4 (11748680_a_at) / Fold change /veh TMPRSS4 (11748680_a_at) / RFU FAM212B (11763350_a_at) / Fold change /veh FAM212B (11763350_a_at) / RFU PLEKHG5 (11743358_a_at) / Fold change /veh PLEKHG5 (11743358_a_at) / RFU ZSCAN30 (11745921_a_at) / Fold change /veh ZSCAN30 (11745921_a_at) / RFU CMKLR1 (11741424_a_at) / Fold change /veh CMKLR1 (11741424_a_at) / RFU LOC101060620 /// MAPK8IP1 (11723275_at) / Fold change /veh LOC101060620 /// MAPK8IP1 (11723275_at) / RFU SPTSSB (11747773_x_at) / Fold change /veh SPTSSB (11747773_x_at) / RFU PRSS12 (11739890_at) / Fold change /veh PRSS12 (11739890_at) / RFU BIN1 (11741810_x_at) / Fold change /veh BIN1 (11741810_x_at) / RFU WNT11 (11732464_a_at) / Fold change /veh WNT11 (11732464_a_at) / RFU C10orf10 (11716521_a_at) / Fold change /veh C10orf10 (11716521_a_at) / RFU C5orf56 (11738089_at) / Fold change /veh C5orf56 (11738089_at) / RFU CYB561 (11721691_x_at) / Fold change /veh CYB561 (11721691_x_at) / RFU ANKRD19P (11752326_a_at) / Fold change /veh ANKRD19P (11752326_a_at) / RFU OR2T12 /// OR2T33 /// OR2T8 (11738714_s_at) / Fold change /veh OR2T12 /// OR2T33 /// OR2T8 (11738714_s_at) / RFU VCAN (11748164_a_at) / Fold change /veh VCAN (11748164_a_at) / RFU JSRP1 (11732532_at) / Fold change /veh JSRP1 (11732532_at) / RFU KRTAP10-11 (11738290_x_at) / Fold change /veh KRTAP10-11 (11738290_x_at) / RFU MYO3A (11730013_a_at) / Fold change /veh MYO3A (11730013_a_at) / RFU EBF3 (11725865_a_at) / Fold change /veh EBF3 (11725865_a_at) / RFU CAMK2N1 (11719241_x_at) / Fold change /veh CAMK2N1 (11719241_x_at) / RFU C5orf56 (11738088_a_at) / Fold change /veh C5orf56 (11738088_a_at) / RFU OLFML3 (11715873_a_at) / Fold change /veh OLFML3 (11715873_a_at) / RFU LOC100653217 /// NTM (11731650_a_at) / Fold change /veh LOC100653217 /// NTM (11731650_a_at) / RFU MAPK11 (11762145_a_at) / Fold change /veh MAPK11 (11762145_a_at) / RFU FIZ1 (11724087_x_at) / Fold change /veh FIZ1 (11724087_x_at) / RFU OASL (11726364_x_at) / Fold change /veh OASL (11726364_x_at) / RFU SOX15 (11748057_x_at) / Fold change /veh SOX15 (11748057_x_at) / RFU CD79A (11719716_a_at) / Fold change /veh CD79A (11719716_a_at) / RFU HIST1H1D (11736915_at) / Fold change /veh HIST1H1D (11736915_at) / RFU CASKIN2 (11723855_a_at) / Fold change /veh CASKIN2 (11723855_a_at) / RFU LOC730098 (11760151_x_at) / Fold change /veh LOC730098 (11760151_x_at) / RFU OR4N2 (11742367_at) / Fold change /veh OR4N2 (11742367_at) / RFU PRRT2 (11749266_a_at) / Fold change /veh PRRT2 (11749266_a_at) / RFU SNX32 (11753110_a_at) / Fold change /veh SNX32 (11753110_a_at) / RFU CDHR5 (11726645_a_at) / Fold change /veh CDHR5 (11726645_a_at) / RFU RCAN1 (11760418_a_at) / Fold change /veh RCAN1 (11760418_a_at) / RFU FAM167A (11723789_a_at) / Fold change /veh FAM167A (11723789_a_at) / RFU FAM26E (11764081_at) / Fold change /veh FAM26E (11764081_at) / RFU ISYNA1 (11749810_s_at) / Fold change /veh ISYNA1 (11749810_s_at) / RFU ACY1 (11761880_at) / Fold change /veh ACY1 (11761880_at) / RFU 11764098_at / Fold change /veh 11764098_at / RFU SAMD14 (11745864_x_at) / Fold change /veh SAMD14 (11745864_x_at) / RFU NPB (11741838_a_at) / Fold change /veh NPB (11741838_a_at) / RFU TMPRSS6 (11731388_a_at) / Fold change /veh TMPRSS6 (11731388_a_at) / RFU KRTAP10-2 (11738614_at) / Fold change /veh KRTAP10-2 (11738614_at) / RFU ARHGAP8 /// PRR5-ARHGAP8 (11727945_x_at) / Fold change /veh ARHGAP8 /// PRR5-ARHGAP8 (11727945_x_at) / RFU KRTAP5-7 /// NADSYN1 (11734609_at) / Fold change /veh KRTAP5-7 /// NADSYN1 (11734609_at) / RFU RASL12 (11751679_a_at) / Fold change /veh RASL12 (11751679_a_at) / RFU CDKN2B (11736163_a_at) / Fold change /veh CDKN2B (11736163_a_at) / RFU PRF1 (11729649_at) / Fold change /veh PRF1 (11729649_at) / RFU, ZNF638 /// ZNF638-IT1 / Fold change vs veh, ZNF638 /// ZNF638-IT1 / RFU, PANK3 / Fold change vs veh, PANK3 / RFU, SH3YL1 / Fold change vs veh, SH3YL1 / RFU, ZEB2 / Fold change vs veh, ZEB2 / RFU, NRIP1 / Fold change vs veh, NRIP1 / RFU, PTTG1IP / Fold change vs veh, PTTG1IP / RFU, CAPN2 / Fold change vs veh, CAPN2 / RFU, MED14 / Fold change vs veh, MED14 / RFU, SNORA58 / Fold change vs veh, SNORA58 / RFU, C1orf63 / Fold change vs veh, C1orf63 / RFU, LRRFIP1 / Fold change vs veh, LRRFIP1 / RFU, NDUFAF7 / Fold change vs veh, NDUFAF7 / RFU, SLC12A2 / Fold change vs veh, SLC12A2 / RFU, IBTK / Fold change vs veh, IBTK / RFU, ESF1 / Fold change vs veh, ESF1 / Fold change vs veh, TMEM50B / RFU, TAOK1 / Fold change vs veh, TAOK1 / RFU, ACBD3 / Fold change vs veh, ACBD3 / RFU, TMA16 / Fold change vs veh, TMA16 / RFU, RWDD3 / Fold change vs veh, RWDD3 / RFU, BCAT1 / Fold change vs veh, BCAT1 / RFU, EDEM3 / Fold change vs veh, EDEM3 / RFU, TMEM33 / Fold change vs veh, TMEM33 / RFU, WDR75 / Fold change vs veh, WDR75 / RFU, AHCTF1 / Fold change vs veh, AHCTF1 / RFU, TFRC / Fold change vs veh, TFRC / RFU, ZDHHC17 / Fold change vs veh, ZDHHC17 / RFU, NOM1 / Fold change vs veh, NOM1 / RFU, ARL8B / Fold change vs veh, ARL8B / RFU, ZBTB11 / Fold change vs veh, ZBTB11 / RFU, TAMM41 / Fold change vs veh, TAMM41 / RFU, KIAA1704 /// LOC100996395 / Fold change vs veh, KIAA1704 /// LOC100996395 / RFU, ING1 / Fold change vs veh, ING1 / RFU, TRMT61B / Fold change vs veh, TRMT61B / RFU, FUBP3 / Fold change vs veh, FUBP3 / RFU, TP53 / Fold change vs veh, TP53 / RFU, TNKS2 / Fold change vs veh, TNKS2 / RFU, ZFP14 / Fold change vs veh, ZFP14 / RFU, ACTR2 / Fold change vs veh, ACTR2 / RFU, PPP3R1 / Fold change vs veh, PPP3R1 / RFU, PIK3R1 / Fold change vs veh, PIK3R1 / RFU, HNRNPA1 / Fold change vs veh, HNRNPA1 / RFU, RNF170 / Fold change vs veh, RNF170 / RFU, ZNF28 / Fold change vs veh, ZNF28 / RFU, RNGTT / Fold change vs veh, RNGTT / RFU, OGT / Fold change vs veh, OGT / RFU, BRD1 / Fold change vs veh, BRD1 / RFU, MARS / Fold change vs veh, MARS / RFU, ZNF655 / Fold change vs veh, ZNF655 / RFU, FAHD1 / Fold change vs veh, FAHD1 / RFU, BDP1 / Fold change vs veh, BDP1 / RFU, LRRCC1 / Fold change vs veh, LRRCC1 / RFU, ARID1A / Fold change vs veh, ARID1A / RFU, ZNF146 / Fold change vs veh, ZNF146 / RFU, ZNF330 / Fold change vs veh, ZNF330 / RFU, GPN3 / Fold change vs veh, GPN3 / RFU, C9orf123 / Fold change vs veh, C9orf123 / RFU, N4BP2L2 / Fold change vs veh, N4BP2L2 / RFU, ARFIP1 / Fold change vs veh, ARFIP1 / RFU, FAM179B / Fold change vs veh, FAM179B / RFU, BCL10 / Fold change vs veh, BCL10 / RFU, UHRF1BP1L / Fold change vs veh, UHRF1BP1L / RFU, BET1 / Fold change vs veh, BET1 / RFU, CNOT2 / Fold change vs veh, CNOT2 / RFU, ZNF268 / Fold change vs veh, ZNF268 / Fold change vs veh, ZNF507 / RFU, DGCR2 / Fold change vs veh, DGCR2 / RFU, WDSUB1 / Fold change vs veh, WDSUB1 / Fold change vs veh, HSP90B1 /// MIR3652 / RFU, ADSS / Fold change vs veh, ADSS / RFU, GK / Fold change vs veh, GK / RFU, ZNF148 / Fold change vs veh, ZNF148 / RFU, TAF9 / Fold change vs veh, TAF9 / RFU, SLC1A5 / Fold change vs veh, SLC1A5 / RFU, SLMO2 / Fold change vs veh, SLMO2 / RFU, ABCC4 / Fold change vs veh, ABCC4 / RFU, LOC101060439 /// RAP1B / Fold change vs veh, LOC101060439 /// RAP1B / RFU, RFX7 / Fold change vs veh, RFX7 / RFU, GTPBP10 / Fold change vs veh, GTPBP10 / RFU, CNEP1R1 / Fold change vs veh, CNEP1R1 / RFU, BIVM-ERCC5 /// ERCC5 / Fold change vs veh, BIVM-ERCC5 /// ERCC5 / RFU, ILF3 / Fold change vs veh, ILF3 / RFU 11762660_at / Fold change /veh 11762660_at / RFU VCAN (11757783_s_at) / Fold change /veh VCAN (11757783_s_at) / RFU DDX43 (11728927_at) / Fold change /veh DDX43 (11728927_at) / RFU KRT8 (11758188_x_at) / Fold change /veh KRT8 (11758188_x_at) / RFU NKD1 (11759106_at) / Fold change /veh NKD1 (11759106_at) / RFU SRD5A1 (11742802_a_at) / Fold change /veh SRD5A1 (11742802_a_at) / RFU TPSAB1 /// TPSB2 (11721975_s_at) / Fold change /veh TPSAB1 /// TPSB2 (11721975_s_at) / RFU GSTM3 (11746129_a_at) / Fold change /veh GSTM3 (11746129_a_at) / RFU IL23R (11737362_x_at) / Fold change /veh IL23R (11737362_x_at) / RFU TMEM51 (11727254_a_at) / Fold change /veh TMEM51 (11727254_a_at) / RFU PIWIL2 (11732686_x_at) / Fold change /veh PIWIL2 (11732686_x_at) / RFU ORM1 (11744905_x_at) / Fold change /veh ORM1 (11744905_x_at) / RFU CCDC152 (11743942_at) / Fold change /veh CCDC152 (11743942_at) / RFU ECM1 (11717891_a_at) / Fold change /veh ECM1 (11717891_a_at) / RFU IL23R (11748794_a_at) / Fold change /veh IL23R (11748794_a_at) / RFU TNFAIP8L3 (11732012_x_at) / Fold change /veh TNFAIP8L3 (11732012_x_at) / RFU MBOAT4 (11741988_at) / Fold change /veh MBOAT4 (11741988_at) / RFU 11764193_at / Fold change /veh 11764193_at / RFU TMEM53 (11763286_at) / Fold change /veh TMEM53 (11763286_at) / RFU MAGEB2 (11727129_at) / Fold change /veh MAGEB2 (11727129_at) / RFU TMEM200A (11744735_a_at) / Fold change /veh TMEM200A (11744735_a_at) / RFU CCDC152 (11751479_a_at) / Fold change /veh CCDC152 (11751479_a_at) / RFU FAM211A (11726209_a_at) / Fold change /veh FAM211A (11726209_a_at) / RFU RGS16 (11746705_a_at) / Fold change /veh RGS16 (11746705_a_at) / RFU VCAN (11755009_s_at) / Fold change /veh VCAN (11755009_s_at) / RFU RHOB (11743442_s_at) / Fold change /veh RHOB (11743442_s_at) / RFU RGS16 (11720943_a_at) / Fold change /veh RGS16 (11720943_a_at) / RFU RGS16 (11720944_at) / Fold change /veh RGS16 (11720944_at) / RFU, VPS4B / Fold change vs veh, VPS4B / RFU, CREB1 / Fold change vs veh, CREB1 / RFU, DNAJC13 / Fold change vs veh, DNAJC13 / RFU, GNAQ / Fold change vs veh, GNAQ / RFU, CDK5R1 / Fold change vs veh, CDK5R1 / RFU, ZRANB3 / Fold change vs veh, ZRANB3 / RFU, CUL4A / Fold change vs veh, CUL4A / RFU, CCNY / Fold change vs veh, CCNY / RFU, UFL1 / Fold change vs veh, UFL1 / RFU, COG3 / Fold change vs veh, COG3 / RFU, DIAPH2 / Fold change vs veh, DIAPH2 / RFU, SKA2 / Fold change vs veh, SKA2 / RFU, AFF3 / Fold change vs veh, AFF3 / RFU, LMF1 / Fold change vs veh, LMF1 / RFU, IPO11 / Fold change vs veh, IPO11 / RFU, DFFB / Fold change vs veh, DFFB / RFU, FOXP1 / Fold change vs veh, FOXP1 / RFU, CARD8 / Fold change vs veh, CARD8 / RFU, STRN3 / Fold change vs veh, STRN3 / RFU, ADK / Fold change vs veh, ADK / RFU, RASSF2 / Fold change vs veh, RASSF2 / RFU, WIPF1 / Fold change vs veh, WIPF1 / RFU, LARP1B / Fold change vs veh, LARP1B / RFU, RASA1 / Fold change vs veh, RASA1 / RFU, RB1 / Fold change vs veh, RB1 / RFU, PPFIA1 / Fold change vs veh, PPFIA1 / RFU, MAT2A / Fold change vs veh, MAT2A / RFU, CCT5 / Fold change vs veh, CCT5 / RFU, WDR92 / Fold change vs veh, WDR92 / RFU, CUX1 / Fold change vs veh, CUX1 / RFU, TTC7A / Fold change vs veh, TTC7A / RFU, TMEM135 / Fold change vs veh, TMEM135 / RFU, DEPTOR / Fold change vs veh, DEPTOR / RFU, CPM / Fold change vs veh, CPM / RFU, DNAJB6 / Fold change vs veh, DNAJB6 / RFU, CACNA2D3 / Fold change vs veh, CACNA2D3 / RFU, DTX4 / Fold change vs veh, DTX4 / RFU, TFCP2 / Fold change vs veh, TFCP2 / RFU, GMCL1 /// GMCL1P1 / Fold change vs veh, GMCL1 /// GMCL1P1 / RFU, AEBP2 / Fold change vs veh, AEBP2 / RFU, SNHG1 /// SNORD22 /// SNORD25 /// SNORD26 /// SNORD27 /// SNORD28 /// SNORD29 /// SNORD31 / Fold change vs veh, SNHG1 /// SNORD22 /// SNORD25 /// SNORD26 /// SNORD27 /// SNORD28 /// SNORD29 /// SNORD31 / Fold change (Aza/veh), C12orf56 (ProbeSet 11735607_a_at) / Fold change (ACY-1035/veh), C12orf56 (ProbeSet 11735607_a_at) / Fold change (Aza/veh), FGFR1OP (ProbeSet 11751329_s_at) / Fold change (ACY-1035/veh), FGFR1OP (ProbeSet 11751329_s_at) / Fold change (Aza/veh), VPS36 (ProbeSet 11739960_a_at) / Fold change (ACY-1035/veh), VPS36 (ProbeSet 11739960_a_at) / RFU SYPL1 (11715823_x_at) / Fold change /veh SYPL1 (11715823_x_at) / RFU IGFBP7 (11715501_s_at) / Fold change /veh IGFBP7 (11715501_s_at) / RFU REEP3 (11722064_at) / Fold change /veh REEP3 (11722064_at) / RFU IGLL1 (11728026_x_at) / Fold change /veh IGLL1 (11728026_x_at): dose or concentration left out as unconfirmed
Details: MV-4-11 cells, 48 hours

Nc1ccc(-c2cccs2)cc1NC(=O)c1ccc2c(c1)cc(C1CC1)n2CCN1CCOCC1 [ACY-1035]
RFU SRD5A1 (11742802_a_at): 49.09 RFU
